# “And” between values parts separate entries of the source, which are not always exact repeats. Equal entries are not always repeated.
# How the values were obtained:
# Ps. aeruginosa ATCC 9027 = experiment: Checkerboard MIC test, pyrithiones with zinc salts; format: cell-based, Pseudomonas aeruginosa; conditions: TSB, 28 C, 3 days
# [1] = system: Aspergillus niger ATCC 6275; experiment: Checkerboard MIC test, pyrithiones with zinc salts; format: cell-based; conditions: TSB, 28 C, 5 days
# [2] = system: Staphylococcus aureus ATCC 27217; experiment: Checkerboard MIC test, pyrithiones with zinc salts; format: cell-based; conditions: TSB, 28 C, 3 days
# [3] = system: Pseudomonas aeruginosa NCIMB 6749; experiment: Checkerboard MIC test, pyrithiones with zinc salts; format: cell-based; conditions: TSB, 28 C, 3 days
# Fusarium sp. = experiment: Checkerboard MIC test, pyrithiones with zinc salts; format: cell-based; conditions: TSB, 28 C, 5 days
# Procedure: Mixtures of pyrithione and zinc or silver in various proportions were tested for relative efficacy by a modification of the procedure described by Dougherty, et al.
# Equal volumes of bacteria (10^6 cells/ml) or fungi (10^5 spores/ml) were added to each microtiter plate well. The plates were incubated at 28 C for 3 days (bacteria) or 5 days (fungi), and the minimum inhibitory concentration (MIC) of biocide was determined. The Fractional Inhibitory Concentration (FIC=concentration of biocide in an inhibitory mixture divided by the MIC of the pure biocide) was determined, and the FIC Index (sum of the two FIC's) was calculated. The type of interaction was categorized according to the magnitude of the Index: Synergistic (<1), Additive (1), or Antagonistic (>1).
# [4] = system: E. coli 8739 free-living cells; experiment: Viable free-living cells in bulk metalworking fluid (Example 5); format: cell-based, Escherichia coli; conditions: 10% TSB; 100 PPM NaPT, 10 PPM Zn (II) or both; 4 days after treatment
# [5] = system: Fusarium sp. free-living cells; experiment: as above; format: cell-based; conditions: 100 PPM NaPT, 10 PPM Zn (II) or both, 4 days after treatment
# Procedure: (§1) Experiments were conducted to investigate the efficacy of the composition of the present invention to inhibit the survival, growth, and proliferation of free-living and biofilm populations of bacteria and fungi in metalworking fluids. […] Metalworking fluids (MWF) employed included 5% soluble oil MWF, 5% semi-synthetic MWF, or 5% synthetic MWS. For testing against bacteria, metalworking fluids were supplemented with 2% (weight-to-weight ratio (w:w)) of 5 g/L yeast extract (Difco), Metalworking fluids were supplemented with 2% (weight-to-weight (w:w)) of Tryptic Soy Broth (Difco) for fungal tests.
# (§2) For each experiment, three ml of a 5% metalworking fluid was added to each of twelve, sterile, 16 mm×150 mm glass culture tubes. […] Fusarium sp. was added to the tubes to final concentrations of 10^5 spores/ml for the fungal tests. Tubes incubated for 3 days at 28° C. and 180 rpms.
# (§3) After the treatments additions were performed, the culture tubes resumed incubation at 28° C., 180 rpms for an additional 4 days.
# (§4) After 4 days, culture tubes were removed from the incubator and viable counts of organisms from the bulk MWF fluid and the biofilm were determined using serial dilution and drop plating techniques. For biofilms, polycarbonate discs were removed from tubes, dip-rinsed in three successive washes of de-ionized water to remove loosely attached cells, and transferred to 25 mm×150 mm culture tubes containing 10 ml of sterile, de-ionized water. Biofilms were removed from discs and resuspended by vortexing tubes for 30 seconds. Bacteria were plated on to R2A Agar plates and incubated at 37° C. Fungi were plated onto Malt Agar plates and incubated at 28° C. Mean colony forming units per ml (for bulk) and per square cm (cm^2) biofilm were determined for each experimental treatment.
# E. coli 8739 biofilm = experiment: Viable biofilm cells on discs in metalworking fluid (Example 5); format: cell-based, Escherichia coli; conditions: 10% TSB, polycarbonate disc; 100 PPM NaPT, 10 PPM Zn (II) or both; 4 days after treatment
# Fusarium sp. biofilm = experiment: as above; format: cell-based; conditions: polycarbonate disc, 100 PPM NaPT, 10 PPM Zn (II) or both, 4 days after treatment
# Procedure: as §1, §2, §3, §4
# [6] = system: mixed bacteria (Pseudomonas aeruginosa 9027, Escherichia coli 8739, Pseudomonas fluorescens 12201, Pseudomonas rubescens 12202, Pseudomonas putida); experiment: Various mixtures of NaPT and Zn(II) against bacteria in 5% metalworking fluid (Example 8, Table 10a); format: cell-based, Pseudomonas spp.
# [7] = system: Fusarium sp. and Cephalosporium sp.; experiment: Various mixtures of NaPT and Zn(II) against fungi in 5% metalworking fluid (Example 8, Table 10b); format: cell-based
# [8] = system: Staphylococcus aureus ATCC 27217; experiment: Zone of inhibition test (paper disc on TSA); format: cell-based; conditions: 6.5 mm discs; 0.135% pyrithione, 0.1% ZnCl2 or both; 28° C., 24 hr
# [9] = system: Escherichia coli ATCC 10536; experiment: Zone of inhibition test (paper disc on TSA); format: cell-based; conditions: 6.5 mm discs; 0.135% pyrithione, 0.1% ZnCl2 or both; 28° C., 24 hr
# [10] = system: Pseudomonas aeruginosa NCIMB 6749; experiment: Zone of inhibition test (paper disc on TSA); format: cell-based; conditions: 6.5 mm discs; 0.135% pyrithione, 0.1% ZnCl2 or both; 28° C., 24 hr
# [11] = system: Staphylococcus aureus 27217; experiment: Checkerboard MIC test, pyrithiones with silver salts; format: cell-based; conditions: ZPT alone or in the inhibitory mixture with silver salt; TSB pH 7.3, 35° C., 1 to 2 days
# Escherichia coli 10536 = experiment: as above; format: cell-based; conditions: ZPT alone or in the inhibitory mixture with silver salt; TSB pH 7.3, 35° C., 1 to 2 days
# [12] = system: seven cultures of bacteria; experiment: Challenge test in soluble oil metalworking fluid, bacteria (Example 6); format: cell-based; conditions: soluble oil MWF, 10 ppm Zn, 100 ppm NaPT, 50 ppm ZPT or 50 ppm CuPT as in column head
# two cultures of fungi = experiment: Challenge test in soluble oil metalworking fluid, fungi (Example 6); format: cell-based; conditions: soluble oil MWF, 10 ppm Zn, 100 ppm NaPT, 50 ppm ZPT or 50 ppm CuPT as in column head
# [13] = Zn(II) from ZnO, alone or in the inhibitory mixture
# [14] = Zn(II) alone or Zn(II) concentration in the inhibitory mixture
# [15] = semi-synthetic, Zn (II) 10 PPM, Day 1
# [16] = semi-synthetic, Zn (II) 10 PPM, Day 2
# [17] = semi-synthetic, Zn (II) 10 PPM, Day 7
# [18] = semi-synthetic, Zn (II) 20 PPM, Day 1
# [19] = semi-synthetic, Zn (II) 20 PPM, Day 2
# [20] = semi-synthetic, Zn (II) 20 PPM, Day 7
# [21] = semi-synthetic, Zn (II) 30 PPM, Day 1
# [22] = semi-synthetic, Zn (II) 30 PPM, Day 2
# [23] = semi-synthetic, Zn (II) 30 PPM, Day 7
# [24] = semi-synthetic, Zn (II) 100 PPM, Day 1
# [25] = semi-synthetic, Zn (II) 100 PPM, Day 4
# [26] = semi-synthetic, Zn (II) 500 PPM, Day 1
# [27] = semi-synthetic, Zn (II) 500 PPM, Day 4
# [28] = synthetic, Zn (II) 10 PPM, Day 1
# [29] = synthetic, Zn (II) 20 PPM, Day 1
# [30] = pyrithione alone or pyrithione concentration in the inhibitory mixture
# [31] = pyrithione alone or in the inhibitory mixture with ZnO
compound,measurement,setting,value
[O]=[Zn] [ZnO],MIC Zn(II),Ps. aeruginosa ATCC 9027; [13],>1645 ppm
same,MIC Zn(II),[1]; [13],>1645 ppm
O=S(=O)([O-])[O-].[Zn+2] [ZnSO4],MIC Zn(II),[2]; [14],200 ppm
same,MIC Zn(II),[3]; [14],>200 ppm and <200 ppm
same,MIC Zn(II),Fusarium sp.; [14],>200 ppm and <200 ppm
same,viable free-living microorganisms,[4],5.8 × 10^8 cells/ml
same,viable free-living microorganisms,[5]; 5% semisynth. MWF,4.6 × 10^5 cells/ml
same,viable free-living microorganisms,[5]; 5% synthetic MWF,8.7 × 10^6 cells/ml
same,viable free-living microorganisms,[5]; 100% TSB,3.4 × 10^6 cells/ml
same,viable biofilm microorganisms,E. coli 8739 biofilm,6.5 × 10^5 cells/cm^2
same,viable biofilm microorganisms,Fusarium sp. biofilm; 5% semisynth. MWF,27 cells/cm^2
same,viable biofilm microorganisms,Fusarium sp. biofilm; 5% synthetic MWF,1.4 × 10^5 cells/cm^2
same,viable biofilm microorganisms,Fusarium sp. biofilm; 100% TSB,3.3 × 10^4 cells/cm^2
same,Bacteria/ml,[6]; [15],170 Bacteria/ml
same,Bacteria/ml,[6]; [16],3.2 × 10^5 Bacteria/ml
same,Bacteria/ml,[6]; [17],4.8 × 10^4 Bacteria/ml
same,Bacteria/ml,[6]; [18],1.5 × 10^5 Bacteria/ml
same,Bacteria/ml,[6]; [19],1.4 × 10^4 Bacteria/ml
same,Bacteria/ml,[6]; [20],4.0 × 10^3 Bacteria/ml
same,Bacteria/ml,[6]; [21],1.7 × 10^3 Bacteria/ml
same,Bacteria/ml,[6]; [22],1.5 × 10^5 Bacteria/ml
same,Bacteria/ml,[6]; [23],1.3 × 10^5 Bacteria/ml
same,Bacteria/ml,[6]; [24],4.9 × 10^4 Bacteria/ml
same,Bacteria/ml,[6]; [25],5.7 × 10^4 Bacteria/ml
same,Bacteria/ml,[6]; [26],9.5 × 10^4 Bacteria/ml
same,Bacteria/ml,[6]; [27],1.1 × 10^5 Bacteria/ml
same,Bacteria/ml,[6]; [28],30 Bacteria/ml
same,Bacteria/ml,[6]; [29],190 Bacteria/ml
same,Fungi/ml,[7]; [15],1.0 × 10^4 Fungi/ml
same,Fungi/ml,[7]; [16],5.0 × 10^3 Fungi/ml
same,Fungi/ml,[7]; [17],4.8 × 10^2 Fungi/ml
same,Fungi/ml,[7]; [18],1.2 × 10^4 Fungi/ml
same,Fungi/ml,[7]; [19],1.6 × 10^4 Fungi/ml
same,Fungi/ml,[7]; [20],4.0 × 10^3 Fungi/ml
same,Fungi/ml,[7]; [21],1.2 × 10^4 Fungi/ml
same,Fungi/ml,[7]; [22],1.5 × 10^4 Fungi/ml
same,Fungi/ml,[7]; [23],1.3 × 10^3 Fungi/ml
same,Fungi/ml,[7]; [24],3.3 × 10^4 Fungi/ml
same,Fungi/ml,[7]; [25],1.1 × 10^4 Fungi/ml
same,Fungi/ml,[7]; [26],4.4 × 10^4 Fungi/ml
same,Fungi/ml,[7]; [27],2.0 × 10^4 Fungi/ml
same,Fungi/ml,"[7]; semi-synthetic, Zn (II) 1000 PPM, Day 1",4.1 × 10^4 Fungi/ml
same,Fungi/ml,"[7]; semi-synthetic, Zn (II) 1000 PPM, Day 4",1.0 × 10^4 Fungi/ml
same,Fungi/ml,[7]; [28],7.5 × 10^4 Fungi/ml
same,Fungi/ml,"[7]; synthetic, Zn (II) 10 PPM, Day 2",3.1 × 10^4 Fungi/ml
same,Fungi/ml,"[7]; synthetic, Zn (II) 10 PPM, Day 7",1.4 × 10^4 Fungi/ml
same,Fungi/ml,[7]; [29],3.9 × 10^4 Fungi/ml
same,Fungi/ml,"[7]; synthetic, Zn (II) 20 PPM, Day 2",2.2 × 10^4 Fungi/ml
same,Fungi/ml,"[7]; synthetic, Zn (II) 20 PPM, Day 7",1.3 × 10^4 Fungi/ml
same,Fungi/ml,"[7]; synthetic, Zn (II) 30 PPM, Day 1",4.2 × 10^4 Fungi/ml
same,Fungi/ml,"[7]; synthetic, Zn (II) 30 PPM, Day 2",2.1 × 10^4 Fungi/ml
same,Fungi/ml,"[7]; synthetic, Zn (II) 30 PPM, Day 7",5.0 × 10^3 Fungi/ml
same,Fungi/ml,"[7]; synthetic, Zn (II) 100 PPM, Day 1",2.1 × 10^4 Fungi/ml
same,Fungi/ml,"[7]; synthetic, Zn (II) 100 PPM, Day 4",6.0 × 10^3 Fungi/ml
same,Fungi/ml,"[7]; synthetic, Zn (II) 500 PPM, Day 1",9.0 × 10^3 Fungi/ml
same,Fungi/ml,"[7]; synthetic, Zn (II) 500 PPM, Day 4",5.0 × 10^3 Fungi/ml
same,Fungi/ml,"[7]; synthetic, Zn (II) 1000 PPM, Day 1",4.0 × 10^3 Fungi/ml
same,Fungi/ml,"[7]; synthetic, Zn (II) 1000 PPM, Day 4",2.0 × 10^3 Fungi/ml
same,Fungi/ml,"[7]; synthetic, Zn (II) 5000 PPM, Day 1",2.0 × 10^3 Fungi/ml
same,Fungi/ml,"[7]; synthetic, Zn (II) 5000 PPM, Day 4",4.0 × 10^3 Fungi/ml
zinc pyrithione [ZPT],Zone of Inhibition,[8],27 mm
same,Zone of Inhibition,[9],31 mm
same,Zone of Inhibition,[10],10 mm
same,MIC Pyrithione,[2]; [30],4 ppm
same,MIC Pyrithione,[3]; [30],256 ppm
same,MIC Pyrithione,Fusarium sp.; [30],64 ppm
same,MIC Pyrithione,Ps. aeruginosa ATCC 9027; [31],512 ppm
same,MIC Pyrithione,[1]; [31],64 ppm
same,MIC ZPT,[11],4 ppm
same,MIC ZPT,Escherichia coli 10536,8 ppm
same,BACTERIA (cfu/ml),[12]; DAY 0,3.2 × 10^7 cfu/ml
same,BACTERIA (cfu/ml),[12]; DAY 6,1000 cfu/ml
same,BACTERIA (cfu/ml),[12]; DAY 13,4400 cfu/ml
same,BACTERIA (cfu/ml),[12]; DAY 20,7700 cfu/ml
same,FUNGI (cfu/ml),two cultures of fungi; DAY 0,2.4 × 10^5 cfu/ml
same,FUNGI (cfu/ml),two cultures of fungi; DAY 6,1000 cfu/ml
same,FUNGI (cfu/ml),two cultures of fungi; DAY 13,10 cfu/ml
same,FUNGI (cfu/ml),two cultures of fungi; DAY 20,10 cfu/ml

# — patent US8206732B2, “Pyrithione biocides enhanced by silver, copper, or zinc ions” (Arch Chemicals, Inc., priority 1999, dated 2012)
